Measurements taken from patent publication US7074789B2, “Kinase inhibitors” (Amgen Inc., priority 1999, dated 2006).

How the values were obtained:
Format in all cases: biochemical
Tek = biological target: T1, Tek (Homo sapiens, UniProt Q02763); experiment: Kinase inhibition assay (33P transfer), Tek; conditions: read-out: Tek-1
T1 construct: Kinases are expressed as either kinase domains or full length constructs; made in house
Outline: (§1)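 Activity read as 33P incorporation from ATP into poly(Glu,Tyr) 4:1 or poly(Arg,Ser) 3:1 substrate bound to microtiter plates, measured by scintillation after acid washing. Enzymes were affinity-purified GST or polyHis fusions (kinase domain or full length) from E. coli or baculovirus; IC50 = 50% reduction in labelled phosphate.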

Kdr = biological target: T2, Kdr (Homo sapiens, UniProt P35968); experiment: Kinase inhibition assay (33P transfer), Kdr; conditions: Table 3; read-out: KDR-1
T2 construct: Kinases are expressed as either kinase domains or full length constructs; made in house
Outline: (§2)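 Each kinase, expressed as a GST- or polyHis-tagged domain or full-length protein, phosphorylated plate-attached poly(Glu,Tyr) 4:1 or poly(Arg,Ser) 3:1 using 33P-ATP. Bound radioactivity was measured by scintillation after a 0.5% phosphoric acid wash.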

Itk = biological target: T3, Itk (Homo sapiens, UniProt Q08881); experiment: Kinase inhibition assay (33P transfer), Itk; conditions: Table 3; read-out: Itk-1
T3 construct: Kinases are expressed as either kinase domains or full length constructs; made in house
T3 sequence (Q08881 1-620): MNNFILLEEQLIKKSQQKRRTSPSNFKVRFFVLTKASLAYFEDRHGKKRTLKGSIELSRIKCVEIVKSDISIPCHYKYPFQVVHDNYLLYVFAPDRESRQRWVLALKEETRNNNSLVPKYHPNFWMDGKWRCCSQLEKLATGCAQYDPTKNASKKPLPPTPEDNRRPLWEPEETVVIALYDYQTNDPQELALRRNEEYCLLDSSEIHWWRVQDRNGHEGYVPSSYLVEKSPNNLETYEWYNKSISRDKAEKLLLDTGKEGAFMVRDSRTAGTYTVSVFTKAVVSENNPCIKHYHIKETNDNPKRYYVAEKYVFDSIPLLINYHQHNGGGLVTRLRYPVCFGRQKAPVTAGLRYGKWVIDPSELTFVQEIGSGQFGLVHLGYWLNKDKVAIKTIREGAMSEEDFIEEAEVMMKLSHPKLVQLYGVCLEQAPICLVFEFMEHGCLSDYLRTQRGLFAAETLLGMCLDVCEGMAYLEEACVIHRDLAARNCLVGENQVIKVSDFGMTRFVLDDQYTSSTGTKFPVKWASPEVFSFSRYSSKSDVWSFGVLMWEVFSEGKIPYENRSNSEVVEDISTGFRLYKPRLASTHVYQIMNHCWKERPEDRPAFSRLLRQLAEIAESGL
Outline: as §1

Lck = biological target: T4, Lck (Homo sapiens, UniProt P06239); experiment: Kinase inhibition assay (33P transfer), Lck; conditions: Table 3; read-out: Lck-1
T4 construct: Kinases are expressed as either kinase domains or full length constructs; made in house
T4 sequence (P06239 whole entry, species assumed, the tested form may be a part): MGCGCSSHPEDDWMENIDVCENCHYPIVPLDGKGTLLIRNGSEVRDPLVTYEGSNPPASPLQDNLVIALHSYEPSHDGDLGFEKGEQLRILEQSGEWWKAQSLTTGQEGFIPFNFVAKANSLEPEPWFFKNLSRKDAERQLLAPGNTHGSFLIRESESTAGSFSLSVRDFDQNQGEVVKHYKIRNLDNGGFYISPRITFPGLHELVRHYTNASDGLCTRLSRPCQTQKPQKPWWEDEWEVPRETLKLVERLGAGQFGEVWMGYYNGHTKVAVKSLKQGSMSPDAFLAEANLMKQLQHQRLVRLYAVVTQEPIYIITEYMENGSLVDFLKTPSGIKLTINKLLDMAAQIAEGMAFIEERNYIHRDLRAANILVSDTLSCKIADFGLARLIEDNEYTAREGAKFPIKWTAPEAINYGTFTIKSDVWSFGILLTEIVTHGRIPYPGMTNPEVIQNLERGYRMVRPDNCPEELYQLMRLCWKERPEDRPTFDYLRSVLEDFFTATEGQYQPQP
Outline: as §2

Hck-1 = biological target: T5, Hck-1 (Homo sapiens, UniProt P08631); experiment: Kinase inhibition assay (33P transfer), Hck; conditions: Table 6, Hck-1 kinase inhibition class
T5 construct: Kinases are expressed as either kinase domains or full length constructs; made in house

Fyn = biological target: T6, Fyn (Homo sapiens, UniProt P06241); experiment: Kinase inhibition assay (33P transfer), Fyn; conditions: read-out: Fyn-1
T6 construct: Kinases are expressed as either kinase domains or full length constructs; made in house
T6 sequence (P06241 whole entry, species assumed, the tested form may be a part): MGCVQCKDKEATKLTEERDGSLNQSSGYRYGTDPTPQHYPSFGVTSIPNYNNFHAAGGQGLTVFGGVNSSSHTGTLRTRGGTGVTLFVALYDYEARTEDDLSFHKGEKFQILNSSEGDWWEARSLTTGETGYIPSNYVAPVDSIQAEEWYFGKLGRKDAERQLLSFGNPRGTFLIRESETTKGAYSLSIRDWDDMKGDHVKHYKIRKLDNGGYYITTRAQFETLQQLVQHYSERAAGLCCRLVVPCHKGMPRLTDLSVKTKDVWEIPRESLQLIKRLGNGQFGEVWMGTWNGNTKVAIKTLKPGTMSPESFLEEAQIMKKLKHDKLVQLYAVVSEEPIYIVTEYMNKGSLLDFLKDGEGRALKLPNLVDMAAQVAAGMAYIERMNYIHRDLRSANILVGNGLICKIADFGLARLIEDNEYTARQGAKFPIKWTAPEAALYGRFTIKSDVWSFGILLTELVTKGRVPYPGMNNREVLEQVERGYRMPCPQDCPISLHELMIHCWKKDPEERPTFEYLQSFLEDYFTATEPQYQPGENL
Outline: as §1

PDGFRB = biological target: T7, PDGFRB (Homo sapiens, UniProt P09619); experiment: Kinase inhibition assay (33P transfer), PDGFRB; conditions: read-out: PDGFRB-1
T7 construct: Kinases are expressed as either kinase domains or full length constructs; made in house
T7 sequence (P09619 33-1106, species assumed): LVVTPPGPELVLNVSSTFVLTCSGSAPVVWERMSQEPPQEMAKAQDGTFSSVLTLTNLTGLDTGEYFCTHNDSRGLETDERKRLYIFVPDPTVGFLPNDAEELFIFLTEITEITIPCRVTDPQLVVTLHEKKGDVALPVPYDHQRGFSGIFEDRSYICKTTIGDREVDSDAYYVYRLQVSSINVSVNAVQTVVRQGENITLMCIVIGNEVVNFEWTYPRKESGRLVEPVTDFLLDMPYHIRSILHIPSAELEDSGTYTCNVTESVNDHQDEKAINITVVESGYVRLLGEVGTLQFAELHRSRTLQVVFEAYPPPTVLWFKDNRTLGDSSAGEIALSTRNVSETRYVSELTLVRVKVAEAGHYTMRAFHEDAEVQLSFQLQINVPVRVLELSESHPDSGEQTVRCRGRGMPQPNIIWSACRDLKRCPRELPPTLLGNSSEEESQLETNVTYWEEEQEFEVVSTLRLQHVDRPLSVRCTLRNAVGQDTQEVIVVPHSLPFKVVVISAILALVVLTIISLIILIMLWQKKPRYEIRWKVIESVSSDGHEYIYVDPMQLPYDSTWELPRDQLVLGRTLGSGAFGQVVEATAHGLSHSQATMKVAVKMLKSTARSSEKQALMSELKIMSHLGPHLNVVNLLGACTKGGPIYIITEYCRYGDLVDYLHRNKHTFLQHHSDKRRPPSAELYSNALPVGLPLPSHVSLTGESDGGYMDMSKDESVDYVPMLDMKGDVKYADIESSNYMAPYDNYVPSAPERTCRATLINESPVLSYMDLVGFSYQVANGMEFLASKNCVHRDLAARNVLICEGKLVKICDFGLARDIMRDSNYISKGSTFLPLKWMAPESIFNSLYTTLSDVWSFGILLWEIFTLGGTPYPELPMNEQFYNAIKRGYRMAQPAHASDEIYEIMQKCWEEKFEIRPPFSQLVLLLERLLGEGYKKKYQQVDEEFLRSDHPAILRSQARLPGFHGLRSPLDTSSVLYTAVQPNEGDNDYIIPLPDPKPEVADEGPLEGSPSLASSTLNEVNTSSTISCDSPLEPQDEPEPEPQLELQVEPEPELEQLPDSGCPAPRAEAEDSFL

EGFR = biological target: T8, EGFR (Homo sapiens, UniProt P00533); experiment: Kinase inhibition assay (33P transfer), EGFR; conditions: Table 2, kinase inhibition class; read-out: EGFR-1
T8 construct: Kinases are expressed as either kinase domains or full length constructs; made in house
Outline: as §1

Zap-70 = biological target: T9, Zap-70 (Homo sapiens, UniProt P43403); experiment: Kinase inhibition assay (33P transfer), Zap-70; conditions: Table 3; read-out: Zap-1
T9 construct: Kinases are expressed as either kinase domains or full length constructs; made in house
T9 sequence (P43403 1-619): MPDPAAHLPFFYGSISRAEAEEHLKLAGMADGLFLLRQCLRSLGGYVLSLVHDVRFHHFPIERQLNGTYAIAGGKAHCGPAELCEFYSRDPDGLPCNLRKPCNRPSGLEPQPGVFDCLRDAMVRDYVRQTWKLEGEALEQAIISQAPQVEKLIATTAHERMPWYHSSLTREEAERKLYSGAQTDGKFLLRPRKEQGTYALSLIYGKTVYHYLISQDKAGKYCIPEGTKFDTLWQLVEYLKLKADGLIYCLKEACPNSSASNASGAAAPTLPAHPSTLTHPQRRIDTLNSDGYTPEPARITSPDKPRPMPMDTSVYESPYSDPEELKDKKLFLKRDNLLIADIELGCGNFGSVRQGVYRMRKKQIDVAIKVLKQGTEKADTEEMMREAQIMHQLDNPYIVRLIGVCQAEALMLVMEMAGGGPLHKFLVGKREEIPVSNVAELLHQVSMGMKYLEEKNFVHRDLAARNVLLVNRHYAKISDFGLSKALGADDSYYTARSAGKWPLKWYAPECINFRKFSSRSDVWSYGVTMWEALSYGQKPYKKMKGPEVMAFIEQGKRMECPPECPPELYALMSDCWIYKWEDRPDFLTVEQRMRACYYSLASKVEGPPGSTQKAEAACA
Outline: as §2

Src = biological target: T10, Src (Homo sapiens, UniProt P12931); experiment: Kinase inhibition assay (33P transfer), Src; conditions: Table 6, Src-1 kinase inhibition class
T10 construct: Kinases are expressed as either kinase domains or full length constructs; made in house
T10 sequence (P12931 whole entry, species assumed, the tested form may be a part): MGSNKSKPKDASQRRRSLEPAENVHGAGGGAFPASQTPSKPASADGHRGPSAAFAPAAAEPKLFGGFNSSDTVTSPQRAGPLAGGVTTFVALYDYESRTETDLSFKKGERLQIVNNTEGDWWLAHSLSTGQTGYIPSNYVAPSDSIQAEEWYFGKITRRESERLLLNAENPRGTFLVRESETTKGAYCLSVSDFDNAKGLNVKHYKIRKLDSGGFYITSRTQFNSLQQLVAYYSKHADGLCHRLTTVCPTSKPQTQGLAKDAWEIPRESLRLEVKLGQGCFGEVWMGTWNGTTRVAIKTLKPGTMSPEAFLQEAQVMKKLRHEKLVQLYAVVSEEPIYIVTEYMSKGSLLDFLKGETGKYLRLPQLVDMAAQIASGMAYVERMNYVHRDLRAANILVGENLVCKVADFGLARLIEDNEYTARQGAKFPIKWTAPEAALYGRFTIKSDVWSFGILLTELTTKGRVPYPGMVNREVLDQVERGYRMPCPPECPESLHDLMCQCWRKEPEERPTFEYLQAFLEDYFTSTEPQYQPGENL
Outline: as §1

Flt-1 = biological target: T11, Flt-1 (Homo sapiens, UniProt P17948); experiment: Kinase inhibition assay (33P transfer), Flt-1
T11 construct: Kinases are expressed as either kinase domains or full length constructs; made in house
Outline: as §1

FGFR1 = biological target: T12, FGFR1 (Homo sapiens, UniProt P11362); experiment: Kinase inhibition assay (33P transfer), FGFR1; conditions: read-out: FGFR1-1
T12 construct: Kinases are expressed as either kinase domains or full length constructs; made in house
T12 sequence (P11362 22-822, species assumed): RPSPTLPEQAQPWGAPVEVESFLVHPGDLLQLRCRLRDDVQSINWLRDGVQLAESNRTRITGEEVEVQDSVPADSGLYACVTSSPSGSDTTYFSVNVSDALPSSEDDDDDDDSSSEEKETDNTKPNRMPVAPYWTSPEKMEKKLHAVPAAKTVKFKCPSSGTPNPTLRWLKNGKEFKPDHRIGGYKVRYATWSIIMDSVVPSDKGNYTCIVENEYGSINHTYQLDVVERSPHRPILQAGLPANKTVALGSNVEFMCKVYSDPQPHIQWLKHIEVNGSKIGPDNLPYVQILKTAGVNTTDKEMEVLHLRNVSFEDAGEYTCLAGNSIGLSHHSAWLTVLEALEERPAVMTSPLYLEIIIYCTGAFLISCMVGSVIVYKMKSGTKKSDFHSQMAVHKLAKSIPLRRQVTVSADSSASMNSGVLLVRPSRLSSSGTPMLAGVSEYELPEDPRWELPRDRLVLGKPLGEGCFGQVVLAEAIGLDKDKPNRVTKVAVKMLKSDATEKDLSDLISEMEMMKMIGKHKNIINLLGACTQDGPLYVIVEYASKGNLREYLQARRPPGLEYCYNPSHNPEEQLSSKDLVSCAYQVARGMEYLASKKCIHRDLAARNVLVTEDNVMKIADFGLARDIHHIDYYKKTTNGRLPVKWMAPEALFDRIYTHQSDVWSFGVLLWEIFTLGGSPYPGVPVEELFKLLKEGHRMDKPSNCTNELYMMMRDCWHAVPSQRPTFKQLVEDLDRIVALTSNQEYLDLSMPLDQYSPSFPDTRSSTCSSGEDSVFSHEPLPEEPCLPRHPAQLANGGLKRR

T1 sequence (Q02763 23-1124, species assumed): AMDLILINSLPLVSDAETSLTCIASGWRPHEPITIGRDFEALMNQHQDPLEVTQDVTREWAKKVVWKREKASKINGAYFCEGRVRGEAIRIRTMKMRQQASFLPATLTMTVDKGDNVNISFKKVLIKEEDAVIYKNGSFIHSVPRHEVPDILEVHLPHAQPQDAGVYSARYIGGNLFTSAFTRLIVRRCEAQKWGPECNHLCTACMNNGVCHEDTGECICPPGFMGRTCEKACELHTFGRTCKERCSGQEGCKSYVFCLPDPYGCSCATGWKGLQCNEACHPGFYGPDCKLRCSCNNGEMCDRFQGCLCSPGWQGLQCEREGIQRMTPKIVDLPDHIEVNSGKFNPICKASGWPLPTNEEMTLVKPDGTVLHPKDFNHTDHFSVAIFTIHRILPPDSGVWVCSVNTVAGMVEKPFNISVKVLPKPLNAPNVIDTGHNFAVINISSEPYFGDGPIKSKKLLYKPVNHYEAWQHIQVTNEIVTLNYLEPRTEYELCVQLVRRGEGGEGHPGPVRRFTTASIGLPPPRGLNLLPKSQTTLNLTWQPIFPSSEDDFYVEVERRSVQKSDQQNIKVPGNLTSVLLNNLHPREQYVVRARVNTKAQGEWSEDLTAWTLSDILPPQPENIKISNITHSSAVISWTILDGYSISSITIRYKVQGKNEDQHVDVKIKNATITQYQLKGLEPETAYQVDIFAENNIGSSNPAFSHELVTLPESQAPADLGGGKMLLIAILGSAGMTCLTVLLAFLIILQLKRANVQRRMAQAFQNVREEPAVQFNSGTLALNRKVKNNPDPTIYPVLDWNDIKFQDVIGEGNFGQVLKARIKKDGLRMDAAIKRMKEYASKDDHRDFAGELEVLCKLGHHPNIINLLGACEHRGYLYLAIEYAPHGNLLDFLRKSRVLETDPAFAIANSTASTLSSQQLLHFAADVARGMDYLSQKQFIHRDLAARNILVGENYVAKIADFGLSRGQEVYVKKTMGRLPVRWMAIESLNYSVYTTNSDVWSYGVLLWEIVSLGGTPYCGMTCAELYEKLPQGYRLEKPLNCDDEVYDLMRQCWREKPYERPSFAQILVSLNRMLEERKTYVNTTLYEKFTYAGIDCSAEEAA

## COc1cc(Nc2ncnc(Nc3cc(-c4ccco4)n[nH]3)n2)cc(OC)c1 [Compound 365]
Tek
  IC50: > 11.9 µM
Kdr
  IC50: < 1.05 µM
Itk
  IC50: 1.05 to 6.33 µM
Lck
  IC50: 1.05 to 6.33 µM
Hck-1
  IC50: > 11.9 µM
Fyn
  IC50: 1.05 to 6.33 µM
PDGFRB
  IC50: 6.33 to 9.23 µM
EGFR
  IC50: 1.05 to 6.33 µM
Zap-70
  IC50: 1.05 to 6.33 µM
Src
  IC50: 1.05 to 6.33 µM
Flt-1
  IC50: 1.05 to 6.33 µM
FGFR1
  IC50: 1.05 to 6.33 µM

## COc1cc(Nc2ncnc(Nc3cc(-c4ccc(Cl)cc4)n[nH]3)n2)cc(OC)c1OC [Compound 367]
Tek
  IC50: 7.71 to 9.91 µM
Kdr
  IC50: < 0.881 µM
Itk
  IC50: 0.881 to 5.29 µM
Lck
  IC50: 0.881 to 5.29 µM
Hck-1
  IC50: > 9.91 µM
Fyn
  IC50: 0.881 to 5.29 µM
PDGFRB
  IC50: > 9.91 µM
EGFR
  IC50: 5.29 to 7.71 µM
Zap-70
  IC50: > 9.91 µM
Src
  IC50: 0.881 to 5.29 µM
Flt-1
  IC50: 0.881 to 5.29 µM
FGFR1
  IC50: 5.29 to 7.71 µM

## COc1cc(Nc2ncnc(-n3c(NCc4ccccc4)nc4ccccc43)n2)cc(OC)c1OC [Compound 371]
Tek
  IC50: > 9.31 µM
Kdr
  IC50: < 0.827 µM
Itk
  IC50: > 9.31 µM
Lck
  IC50: 0.827 to 4.96 µM
Hck-1
  IC50: > 9.31 µM
Fyn
  IC50: < 0.827 µM
PDGFRB
  IC50: < 0.827 µM
EGFR
  IC50: 4.96 to 7.24 µM
Zap-70
  IC50: > 9.31 µM
Src
  IC50: 0.827 to 4.96 µM
Flt-1
  IC50: < 0.827 µM
FGFR1
  IC50: < 0.827 µM

## COc1cc(Nc2ncnc(N(c3ccc(Cl)cc3)c3nc4ccccc4[nH]3)n2)cc(OC)c1OC [Compound 374]
Tek
  IC50: 0.794 to 4.76 µM
Kdr
  IC50: < 0.794 µM
Itk
  IC50: > 8.93 µM
Lck
  IC50: < 0.794 µM
Hck-1
  IC50: 6.95 to 8.93 µM
Fyn
  IC50: 0.794 to 4.76 µM
PDGFRB
  IC50: 0.794 to 4.76 µM
EGFR
  IC50: < 0.794 µM
Zap-70
  IC50: > 8.93 µM
Src
  IC50: < 0.794 µM
Flt-1
  IC50: 0.794 to 4.76 µM
FGFR1
  IC50: < 0.794 µM

## COc1cc(Nc2ncnc(-n3c(Nc4ccc5[nH]ccc5c4)nc4ccccc43)n2)cc(OC)c1OC [Compound 376]
Tek
  IC50: 0.787 to 4.72 µM
Kdr
  IC50: < 0.787 µM
Itk
  IC50: 0.787 to 4.72 µM
Lck
  IC50: < 0.787 µM
Hck-1
  IC50: > 8.85 µM
Fyn
  IC50: 0.787 to 4.72 µM
PDGFRB
  IC50: < 0.787 µM
EGFR
  IC50: 6.88 to 8.85 µM
Zap-70
  IC50: > 8.85 µM
Src
  IC50: > 8.85 µM
Flt-1
  IC50: < 0.787 µM
FGFR1
  IC50: < 0.787 µM

## COc1cc(Nc2ncnc(-n3c(Nc4cccc(C(N)=O)c4)nc4ccccc43)n2)cc(OC)c1OC [Compound 377]
Tek
  IC50: 6.83 to 8.78 µM
Kdr
  IC50: 0.78 to 4.68 µM
Itk
  IC50: 6.83 to 8.78 µM
Lck
  IC50: 0.78 to 4.68 µM
Hck-1
  IC50: > 8.78 µM
Fyn
  IC50: > 8.78 µM
PDGFRB
  IC50: < 0.78 µM
EGFR
  IC50: > 8.78 µM
Zap-70
  IC50: 0.78 to 4.68 µM
Src
  IC50: > 8.78 µM
Flt-1
  IC50: < 0.78 µM
FGFR1
  IC50: < 0.78 µM

## COc1cc(Nc2ncnc(-n3c(Cl)nc4ccccc43)n2)cc(OC)c1OC [Compound 378]
Tek
  IC50: 8.48 to 10.9 µM
Kdr
  IC50: < 0.969 µM
Itk
  IC50: > 10.9 µM
Lck
  IC50: 5.81 to 8.48 µM
Hck-1
  IC50: > 10.9 µM
Fyn
  IC50: 5.81 to 8.48 µM
PDGFRB
  IC50: 0.969 to 5.81 µM
EGFR
  IC50: > 10.9 µM
Zap-70
  IC50: > 10.9 µM
Src
  IC50: 5.81 to 8.48 µM
Flt-1
  IC50: 0.969 to 5.81 µM
FGFR1
  IC50: < 0.969 µM

## COc1cc(Nc2ncnc(-c3c(O)[nH]c4ccccc34)n2)cc(OC)c1OC [Compound 380]
Tek
  IC50: > 11.4 µM
Kdr
  IC50: < 1.02 µM
Itk
  IC50: > 11.4 µM
Lck
  IC50: > 11.4 µM
Hck-1
  IC50: > 11.4 µM
Fyn
  IC50: 1.02 to 6.1 µM
PDGFRB
  IC50: < 1.02 µM
EGFR
  IC50: > 11.4 µM
Zap-70
  IC50: > 11.4 µM
Src
  IC50: > 11.4 µM
Flt-1
  IC50: < 1.02 µM
FGFR1
  IC50: < 1.02 µM

## COc1cc(Nc2ncnc(-n3c(Nc4ccccc4C)nc4ccccc43)n2)cc(OC)c1OC [Compound 384]
Tek
  IC50: > 9.31 µM
Kdr
  IC50: < 0.827 µM
Itk
  IC50: > 9.31 µM
Lck
  IC50: < 0.827 µM
Hck-1
  IC50: > 9.31 µM
Fyn
  IC50: 0.827 to 4.96 µM
PDGFRB
  IC50: < 0.827 µM
EGFR
  IC50: 7.24 to 9.31 µM
Zap-70
  IC50: > 9.31 µM
Src
  IC50: > 9.31 µM
Flt-1
  IC50: > 9.31 µM
FGFR1
  IC50: 0.827 to 4.96 µM
